Laboratory results taken from patent US10085983B2, “Azabicyclo derivatives, process for preparation thereof and medical use thereof” (Shanghai Haiyan Pharmaceutical Technology Co., Ltd., priority 2014, dated 2018).

Legend:
[1] = test system: T790M mutant cell line H1975; settings: background statement; cited from earlier work
[2] = target: T790M/L858R double mutant EGFR kinase (Homo sapiens (Human), UniProt P00533, L858R/T790M); assay: z'-lyte assay of inhibitory activity on T790M/L858R double mutant EGFR kinase; type: biochemical; settings: for Selective inhibitory activity against enzymes [IC50 (EGFR WT)/IC50 (T790M/L858R)]: ratio of enzyme IC50 values; for IC50: z'-lyte assay, 25 μM ATP
[3] = target: EGFR phosphorylation in H1975 (EGFR T790M mutant) cells (Homo sapiens (Human), UniProt P00533, L858R/T790M); assay: Inhibition of EGFR phosphorylation in H1975 cells (ELISA); type: cell-based; settings: for IC50: ELISA of EGFR phosphorylation, 1 h compound treatment, read-out: H1975 cell (IC50/μM); for Selective inhibitory activity against targets at the cell level [IC50 (A431 cell)/IC50 (H1975 cell)]: ratio of ELISA IC50 values;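 on all read-outs here: Phospho-EGFR in cell lysates measured by capture-antibody ELISA with TMB substrate after compound exposure, cells given DMSO alone (0.5% final) serving as control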
Procedure: (§1) In the following methods, the reagents used, the preparation methods of solutions, the cell treatment and the preparation steps of the lysis solution, as well as the ELISA assay steps, were carried out according to the instructions of R&D DYC3570, R&D DYC1095E and R&D DYC1095BE.
(§2) Cell lysis solution: Cell lysis buffer+10 μg/mL Aprotinin (Sigma)+10 μg/mL Leupeptin (Sigma), prepared on site.
(§3) Wash buffer: PBS buffer containing 0.05% (v/v) Tween-20.
(§4) Blocking solution: PBS buffer containing 1% (w/v) BSA.
(1) H1975 cells (purchased from the Cell Bank of the Type Culture Collection Committee, Chinese Academy of Sciences) were seeded into 96-well plates at a density of 1×10^4/well, each cell containing 90 μl of RPMI1640 medium with 10% (V/V) FBS, and cultured overnight at 37° C. in 5% (v/v) CO2.
(2) The compounds to be tested were diluted in accordance with the drug dilution method in the MTT assay. 10 μL of the diluted compound or diluted DMSO was added to the corresponding wells of the cell culture plate, and the final concentration of DMSO was 0.5% (V/V). The plate was cultured at 37° C. in 5% (v/v) CO2 for 1 h. The cell culture system treated with DMSO alone was used as cell control.
(3) The medium was removed and then 100 μL of cell lysis solution was added. The plate was sealed and placed in a refrigerator at −80° C. overnight. The cell lysis buffer was used as blank control.
The assay was conducted according to the instructions given in R&D DYC1095E or R&D DYC1095BE.
(1) R&D capture antibody ((DYC1095BE or DYC1095E)) was diluted with PBS in the proportion of 1:180.
(§5) (2) The plate was washed 3 times with 360 μL of the wash buffer.
(3) 300 μL of the blocking solution was added and the plate was incubated at 25° C. with shaking for 2 hours.
(4) The plate was washed 3 times with 360 μL of the wash buffer.
(§6) (5) 40 μL of cell lysis buffer and 60 μL of cell lysis solution were added and the plate was incubated at 25° C. with shaking for 2 hours.
(§7) (6) The plate was washed 3 times with 360 μL of the wash buffer.
(§8) (7) The detection antibody was diluted with the detection antibody diluent in the proportion specified in the instructions of the kit. 100 μL of the diluted antibody was added to each well and the plate was incubated at 25° C. with shaking in dark for 1 h.
(8) The plate was washed 3 times with 360 μL of wash buffer.
(9) A reagent and B reagent in the TMB substrate (R&D DY999) were mixed in 1:1. 100 μL of the mixture was added to each well and incubated in dark at 25° C. with shaking for 20 min.
(§9) (10) 50 μL of 2N H2SO4 was added to each well.
(11) The plate was read with a microplate reader (Thermo Multiskan K3). OD 450 values and OD570 values of the cell control, blank control, and drug treatment wells were measured. ODcell, ODblank and ODdrug treatment were obtained by subtracting the corresponding OD570 value from the OD 450 value of the same well.
2.3 Data Analysis Inhibition rate (%)=100%×(ODcell−ODdrug treatment)/(ODcell−ODblank)

[4] = target: EGFR phosphorylation in A431 (EGFR wild-type) cells (Homo sapiens (Human), UniProt P00533); assay: Inhibition of EGFR phosphorylation in A431 cells (ELISA); type: cell-based; settings: 1 h compound treatment, EGF stimulation, read-out: A431 cell (IC50/μM)
Procedure: as §1
I. Reagents and Solutions
as §2, §3, §4
3.1 A431 Cell Treatment and Testing Procedures
(1) A431 cells (purchased from the Cell Bank of the Type Culture Collection Committee, Chinese Academy of Sciences) were seeded in 96-well plates at a density of 1×10^4/well in 90 μl of DMEM medium containing 10% FBS and cultured at 37° C. in 5% CO2 overnight.
(2) The A431 cell culture medium was replaced with 90 μl of serum-free DMEM medium and the plate was cultured overnight.
(3) The compound to be tested was diluted according to the drug dilution method in MTT assay. 10 μL of the diluted compound or diluted DMSO was added to the corresponding wells of the cell culture plate, and the final concentration of DMSO was 0.5%. The plate was cultured at 37° C. in 5% CO2 for 1 hour. […] The cells without EGF and drug treatment were used as cell control, and the cells treated with EGF without drugs were used as EGF control.
(4) The medium was removed and then 100 μL of the cell lysis solution was added. The plate was sealed and placed in a refrigerator at −80° C. overnight.
The assay was conducted according to the instructions given in R&D DYC3570E.
(1) R&D capture antibody (DYC3570E) was diluted with PBS in the proportion of 1:180.
as §5
(3) 200 μL of the blocking solution was added and the plate was incubated at 25° C. with shaking for 2 hours.
(4) The plate was washed 3 times with 360 μL of wash buffer.
as §6, §7, §8
(8) The plate was washed 3 times with 360 μL of the wash buffer.
(9) A reagent and B reagent in TMB substrate (R&D DY999) were mixed in 1:1. 100 μL of the mixture was added to each well and incubated in dark at 25° C. with shaking for 20 min.
as §9
(11) The plate was read with a microplate reader (Thermo Multiskan K3). OD 450 values and OD570 values of the cell control, blank control, and drug treatment wells were measured. ODEGF, ODdrug and ODcell were obtained by subtracting the corresponding OD570 value from the OD 450 value of the same well.
3.3 Data Analysis Inhibition rate (%)=100%×(ODEGF−ODdrug)/(ODEGF−ODcell)

[5] = test system: H1975 cells; assay: Cell growth inhibition by MTT assay, H1975 cells; type: cell-based; settings: for IC50: MTT assay, 72 hours; for Selective inhibitory activity against cell growth [IC50 (A431 cell)/IC50 (H1975 cell)]: ratio of MTT IC50 values;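 on all read-outs here: MTT read-out in 96-well plates after 72 h compound exposure of H1975 and A431 cells, with selectivity given as the A431 IC50 divided by the H1975 IC50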
Procedure: (§10) The steps of the MTT assay were carried out using methods well known to those skilled in the art, and all the reagents used in the methods are commercially available.
(§11) After the first wash, another 1.5 mL of trypsin/EDTA was added to digest the adherent cells until the cells detached. Then 3.5 mL of the culture medium was added to terminate the digestion. The digested cell suspension was transferred to a 15 mL centrifuge tube and centrifuged at 1300 rpm for 3 minutes. The supernatant was discarded and the cells were resuspended in fresh medium. The cells were then counted and diluted to the following concentrations: 27,800 cells per milliliter of H1975 cells, 33,300 cells per milliliter of A431 cells and NIH3T3 cells (purchased from the Cell Bank of the Type Culture Collection Committee, Chinese Academy of Sciences).
(§12) After the drug was added, the cells were incubated in an incubator for 72 hours. 10 μL of 5 mg/ml MTT (Sigma, M5655) solution was added to each well. The 96-well plate was then incubated in a 37° C. and 5% CO2 incubator for 4 h.
(§13) The plate was then centrifuged at 2000 rpm for 5 min. After the supernatant was removed, 150 μl of DMSO was added to each well and the plate was shaken in a shaker until all crystal violet was dissolved.

[6] = test system: A431 cells; assay: Cell growth inhibition by MTT assay, A431 cells; type: cell-based; settings: 72 hours
Procedure: as §10, §11, §12, §13

[7] = test system: NIH3T3 cells; assay: Toxicity test on NIH3T3 cells by MTT assay; type: cell-based; settings: 72 hours
Procedure: as §10, §11, §12, §13

[8] = target: wild-type EGFR kinase (Homo sapiens (Human), UniProt P00533); settings: read-out: EGFR WT (IC50/μM); z'-lyte assay, 10 μM ATP
Procedure: All reagents used in the following z′-lyte assay were purchased from Invitrogen.
The working concentrations of each component in 10 μL wild-type EGFR kinase reaction system were: 10 μM ATP, 0.8 ng/μL wild-type EGFR kinase, 2 μM Tyr04 substrate (Invitrogen, PV3193). The concentration of DMSO after addition of the compound to be tested was 2 vol %.
10 mM drug stock solution was dissolved at room temperature and gradiently diluted to a final concentration of 4-0.002 μM with 8 vol % DMSO solution. […] Then 2.5 μl of ATP was added to initiate the reaction. Wherein, ATP was replaced by the reaction buffer in well C1, no drug was added to well C2, and the phosphorylated substrate was added to well C3 according to the instructions. The mixture was allowed to react at 25° C. in a shaker in dark for 60 min. 5 μL of Development Reagent B (Invitrogen, diluted with TR-FRET dilution buffer) was added and allowed to react at room temperature in the shaker for 60 minutes.
The inhibition rate was calculated according to the following method (refer to the instructions of Invitrogen, PV3193):
1. ER=Coumarin Emission (450 nm)/Fluorescein Emission (520 nm)
The half-inhibitory concentration IC50 was obtained through fitting calculation by using XLFIT 5.0 software (IDBS, UK).

[9] = Stability of compound CC0922; type: physicochemical

Sequence of wild-type EGFR kinase (P00533 25-1210): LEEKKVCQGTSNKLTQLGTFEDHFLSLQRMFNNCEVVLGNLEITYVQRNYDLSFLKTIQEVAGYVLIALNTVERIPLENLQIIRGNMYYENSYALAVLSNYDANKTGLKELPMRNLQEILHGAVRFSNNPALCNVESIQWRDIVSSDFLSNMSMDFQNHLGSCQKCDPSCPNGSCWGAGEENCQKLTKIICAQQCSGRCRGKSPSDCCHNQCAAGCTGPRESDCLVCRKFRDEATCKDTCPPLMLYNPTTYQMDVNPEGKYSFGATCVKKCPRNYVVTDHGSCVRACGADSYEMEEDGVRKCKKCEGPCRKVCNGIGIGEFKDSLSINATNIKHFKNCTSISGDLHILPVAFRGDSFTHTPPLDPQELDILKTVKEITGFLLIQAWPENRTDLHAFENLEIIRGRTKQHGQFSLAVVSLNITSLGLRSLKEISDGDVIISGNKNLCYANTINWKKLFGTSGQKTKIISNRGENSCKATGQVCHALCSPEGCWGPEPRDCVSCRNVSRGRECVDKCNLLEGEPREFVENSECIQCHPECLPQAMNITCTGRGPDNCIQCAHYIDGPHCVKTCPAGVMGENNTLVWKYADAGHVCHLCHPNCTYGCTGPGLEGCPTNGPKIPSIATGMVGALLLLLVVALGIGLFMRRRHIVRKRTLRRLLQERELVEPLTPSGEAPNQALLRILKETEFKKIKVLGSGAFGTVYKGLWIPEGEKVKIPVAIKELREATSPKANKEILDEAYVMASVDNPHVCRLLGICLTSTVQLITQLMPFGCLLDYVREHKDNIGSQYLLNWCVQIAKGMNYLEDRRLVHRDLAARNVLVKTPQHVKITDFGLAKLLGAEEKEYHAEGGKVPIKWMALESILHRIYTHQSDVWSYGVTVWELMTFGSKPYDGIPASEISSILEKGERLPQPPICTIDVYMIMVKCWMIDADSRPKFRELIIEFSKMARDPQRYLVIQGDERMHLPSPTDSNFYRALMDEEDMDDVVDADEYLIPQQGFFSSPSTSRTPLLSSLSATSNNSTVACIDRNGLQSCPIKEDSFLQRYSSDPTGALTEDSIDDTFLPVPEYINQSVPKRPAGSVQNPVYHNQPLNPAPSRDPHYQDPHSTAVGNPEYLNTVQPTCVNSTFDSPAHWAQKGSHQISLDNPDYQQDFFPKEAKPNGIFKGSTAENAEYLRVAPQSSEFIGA
Sequence of EGFR phosphorylation in A431 (EGFR wild-type) cells (P00533 25-1210): as above
Sequence of EGFR phosphorylation in H1975 (EGFR T790M mutant) cells (P00533 25-1210 T790M/L858R): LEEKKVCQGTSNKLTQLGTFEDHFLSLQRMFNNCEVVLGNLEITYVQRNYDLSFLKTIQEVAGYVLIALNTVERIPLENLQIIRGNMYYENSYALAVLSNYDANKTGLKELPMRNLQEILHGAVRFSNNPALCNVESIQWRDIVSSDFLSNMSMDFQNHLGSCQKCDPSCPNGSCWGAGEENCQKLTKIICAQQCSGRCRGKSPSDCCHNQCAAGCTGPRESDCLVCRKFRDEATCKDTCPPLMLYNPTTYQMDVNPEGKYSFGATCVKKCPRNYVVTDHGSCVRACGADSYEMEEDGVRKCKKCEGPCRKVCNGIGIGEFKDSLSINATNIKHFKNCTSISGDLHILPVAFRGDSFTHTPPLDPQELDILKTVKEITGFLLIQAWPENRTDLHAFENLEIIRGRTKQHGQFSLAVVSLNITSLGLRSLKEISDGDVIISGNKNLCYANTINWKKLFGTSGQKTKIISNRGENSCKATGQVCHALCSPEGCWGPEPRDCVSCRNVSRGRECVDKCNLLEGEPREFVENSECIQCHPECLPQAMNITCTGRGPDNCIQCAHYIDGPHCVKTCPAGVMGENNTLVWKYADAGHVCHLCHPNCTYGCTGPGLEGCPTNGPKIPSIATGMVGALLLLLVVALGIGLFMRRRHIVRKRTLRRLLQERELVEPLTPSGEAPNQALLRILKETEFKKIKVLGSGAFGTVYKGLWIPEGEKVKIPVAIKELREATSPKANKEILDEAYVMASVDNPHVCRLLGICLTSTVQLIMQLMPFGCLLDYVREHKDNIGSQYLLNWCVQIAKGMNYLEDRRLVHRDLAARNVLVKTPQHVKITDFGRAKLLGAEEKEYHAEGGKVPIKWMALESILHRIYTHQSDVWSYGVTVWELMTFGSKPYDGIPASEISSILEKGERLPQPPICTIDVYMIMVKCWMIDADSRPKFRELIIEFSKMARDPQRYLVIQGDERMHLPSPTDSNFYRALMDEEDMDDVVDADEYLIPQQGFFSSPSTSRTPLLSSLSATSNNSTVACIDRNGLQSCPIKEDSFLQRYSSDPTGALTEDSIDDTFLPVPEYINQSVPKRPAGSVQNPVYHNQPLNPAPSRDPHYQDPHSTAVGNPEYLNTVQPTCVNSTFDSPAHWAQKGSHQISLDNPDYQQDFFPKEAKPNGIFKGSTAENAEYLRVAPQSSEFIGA
Sequence of T790M/L858R double mutant EGFR kinase (P00533 25-1210 T790M/L858R): as above

stability [9]	Structure (SMILES)	activity in the T790M mutant cell line H1975 [1]	Selective inhibitory activity against enzymes [IC50 (EGFR WT)/IC50 (T790M/L858R)] [2]	IC50 [2] [µM]	IC50 [3] [µM]	Selective inhibitory activity against targets at the cell level [IC50 (A431 cell)/IC50 (H1975 cell)] [3]	IC50 [4] [µM]	IC50 [5] [µM]	Selective inhibitory activity against cell growth [IC50 (A431 cell)/IC50 (H1975 cell)] [5]	IC50 [6] [µM]	IC50 [7] [µM]	IC50 [8] [µM]
	C#Cc1cccc(Nc2ncnc3cc(OCCOC)c(OCCOC)cc23)c1 [erlotinib]	greater than 3 uM										
	COc1cc2ncnc(Nc3ccc(F)c(Cl)c3)c2cc1OCCCN1CCOCC1 [gefitinib]	greater than 3 uM										
	C=CC(=O)Nc1cc(Nc2ncc3ccc(-c4cnn(C)c4)n3n2)c(OC)cc1N(C)CCN(C)C [Compound J-1, N-(2-((2-(dimethylamino)ethyl)(methyl)amino)-4-methoxy-5-(7-(1-methyl-1H-pyrazol-4-yl)pyrrolo[1,2-f][1,2,4]triazin-2-ylamino)phenyl)acrylamide]		4	0.001	0.012	9.3	0.112	< 0.00457	71.6	0.327	4.83	0.004
	C=CC(=O)Nc1cc(Nc2ncc3ccc(-c4cnc5ccccc5c4)n3n2)c(OC)cc1N1CCC(N(C)C)CC1 [Compound J-13, N-(2-(4-(dimethylamino)piperidin-1-yl)-4-methoxy-5-(7-(quinolin-3-yl)pyrrolo[1,2-f][1,2,4]triazin-2-ylamino)phenyl)acrylamide]		4.2	0.005	0.043	7	0.301	0.013	28.4	0.369	2.97	0.021
very unstable	C=CC(=O)Nc1cccc(-c2ccc3cnc(Nc4ccc(N(C)CCN(C)C)cc4OC)nn23)c1 [CC0922]											
	C=CC(=O)Nc1cc(Nc2ncc3ccc(-c4cccnc4)n3n2)c(OC)cc1N(C)CCN(C)C [Compound J-6, N-(2-((2-(dimethylamino)ethyl)(methyl)amino)-4-methoxy-5-(7-(pyridin-3-yl)pyrrolo[1,2-f][1,2,4]triazin-2-ylamino)phenyl)acrylamide]		5.42	0.0024	0.027	11.4	0.309	0.028	15.3	0.427	8.21	0.013
	C=CC(=O)Nc1cc(Nc2ncc3ccc(-c4cnn(C)c4)n3n2)c(OC)cc1N1CCC(N(C)C)CC1 [Compound J-2, N-(2-(4-(dimethylamino)piperidin-1-yl)-4-methoxy-5-(7-(1-methyl-1H-pyrazol-4-yl)pyrrolo[1,2-f][11,2,4]triazin-2-ylamino)phenyl)acrylamide]		11.5	0.002	0.025	12.1	0.303	0.011	36.6	0.403	5.46	0.023
	C=CC(=O)Nc1cc(Nc2ncc3ccc(-c4ccccc4)n3n2)c(OC)cc1N(C)CCN(C)C [Compound J-11, N-(2-((2-(dimethylamino)ethyl)(methyl)amino)-4-methoxy-5-(7-phenylpyrrolo[1,2-f][1,2,4]triazin-2-ylamino)phenyl)acrylamide]		4.2	0.0024	0.063	3.8	0.237	0.026	23.9	0.621	5.57	0.01
